Measured values reported in patent publication US20120208809A1, “9H-PYRROLO[2,3-B: 5,4-C'] DIPYRIDINE AZACARBOLINE DERIVATIVES, PREPARATION THEREOF, AND THERAPEUTIC USE THEREOF” (SANOFI, priority 2009, published 2012).

Columns and labels:
Pim-1 = molecular target: T1, Pim-1 (Homo sapiens, UniProt P11309); assay: TR-FRET assay of Pim kinase activity (phosphorylation of Bad Ser112), Pim-1; format: biochemical; conditions: ATP 40 μM, read-out: IC50 Pim1
T1 construct: full-length human recombinant His6-labelled Pim-1, Pim-2 or Pim-3 protein; His6; made in house
Description: (§1) In order to determine the inhibition of Pim kinase activity, the compounds of the invention are tested in accordance with a routinely-used in-vitro TR-FRET assay (“Time Resolved-Fluorescence Resonance Energy Transfer”). […] For the assay, the following reagents are used:
(§2) Pim kinase—full-length human recombinant His6-labelled Pim-1, Pim-2 or Pim-3 protein (prepared according to J. Mol. Biol. (2005) 348, 183-193); Bad—full-length human recombinant His6-labelled Bad protein (prepared according to J. Mol. Biol. (2005) 348, 183-193); α-His6-APC—mouse monoclonal antibody conjugated to allophycocyanine SureLight™ directed against the His6 label (Perkin-Elmer, No. AD0059H, Waltham, Mass., United States); α-P˜Bad-Eu—mouse monoclonal antibody (Cell Signaling Technology #9296B, Danvers, Mass., United States) directed against phosphoBad (Ser112) (7E11) labelled on request by Perkin-Elmer with the reagent LANCE™ Eu-W1024.
(§3) The assay is based on the LANCE™ technology from Perkin-Elmer: the Eu-labelled antibody binds to phospho-Ser112 and generates a TR-FRET signal by interaction with the […] antibody directed against His6, bound to the His6 label of Bad. The TR-FRET signal is detected using a SpectraMax M5 plate reader (Molecular Devices) with the following settings: λex=340 nm, λem1=615 nm, λem2=665 nm. The ratio of the fluorescence signal at 665 nm to the fluorescence signal at 615 nm is used as the signal reading for the IC50 (calculations based on the 4-parameter logistic model). The assay is performed in 384-well format; the liquid manipulations are performed using a Beckmann 3000 liquid manipulation station. The test compounds are tested at 10 concentration points in duplicate; the highest concentration of compound is typically equal to 30 μM. The ATP concentration is equal to 40 μM.

PLK1 = PLK1 (Homo sapiens, UniProt P53350); assay: Biochemical results, IC50 PLK1
CDK1 = CDK1 (Homo sapiens, UniProt P06493); assay: Biochemical results, IC50 CDK1
Pim-2 = molecular target: T2, Pim-2 (Homo sapiens, UniProt Q9P1W9); assay: TR-FRET assay of Pim kinase activity (phosphorylation of Bad Ser112), Pim-2; format: biochemical; conditions: ATP 40 μM, read-out: IC50 Pim2
T2 construct: full-length human recombinant His6-labelled Pim-1, Pim-2 or Pim-3 protein; His6; made in house
Description: as §1, §2, §3

Pim-3 = molecular target: T3, Pim-3 (Homo sapiens, UniProt Q86V86); assay: TR-FRET assay of Pim kinase activity (phosphorylation of Bad Ser112), Pim-3; format: biochemical; conditions: ATP 40 μM, read-out: IC50 Pim3
T3 construct: full-length human recombinant His6-labelled Pim-1, Pim-2 or Pim-3 protein; His6; made in house
Description: as §1, §2, §3

PLK1, sequence (P53350 whole entry, species assumed): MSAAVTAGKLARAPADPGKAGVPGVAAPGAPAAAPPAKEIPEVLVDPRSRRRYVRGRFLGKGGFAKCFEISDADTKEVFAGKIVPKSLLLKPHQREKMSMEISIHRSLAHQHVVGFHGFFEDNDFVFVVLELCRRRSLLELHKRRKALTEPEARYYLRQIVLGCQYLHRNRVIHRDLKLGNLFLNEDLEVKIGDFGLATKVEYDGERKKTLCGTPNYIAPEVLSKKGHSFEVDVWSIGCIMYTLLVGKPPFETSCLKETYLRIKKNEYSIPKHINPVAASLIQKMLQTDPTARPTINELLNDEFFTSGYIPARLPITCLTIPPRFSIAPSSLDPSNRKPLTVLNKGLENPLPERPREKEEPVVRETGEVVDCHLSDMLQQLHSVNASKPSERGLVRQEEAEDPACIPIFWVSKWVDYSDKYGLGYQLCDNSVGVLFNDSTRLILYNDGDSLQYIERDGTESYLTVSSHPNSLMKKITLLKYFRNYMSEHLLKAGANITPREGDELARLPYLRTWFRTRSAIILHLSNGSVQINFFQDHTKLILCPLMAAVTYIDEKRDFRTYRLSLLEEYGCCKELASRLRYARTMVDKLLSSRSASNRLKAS
T2 sequence (Q9P1W9 whole entry): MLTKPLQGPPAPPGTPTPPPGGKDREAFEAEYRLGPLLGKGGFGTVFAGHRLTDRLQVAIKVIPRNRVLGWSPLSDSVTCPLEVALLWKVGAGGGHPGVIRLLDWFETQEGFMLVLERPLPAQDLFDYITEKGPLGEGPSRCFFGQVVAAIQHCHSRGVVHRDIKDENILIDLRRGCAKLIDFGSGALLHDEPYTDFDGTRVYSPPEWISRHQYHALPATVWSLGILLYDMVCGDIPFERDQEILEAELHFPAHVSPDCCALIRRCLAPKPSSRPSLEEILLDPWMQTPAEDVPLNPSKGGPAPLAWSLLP
CDK1, sequence (P06493 whole entry, species assumed): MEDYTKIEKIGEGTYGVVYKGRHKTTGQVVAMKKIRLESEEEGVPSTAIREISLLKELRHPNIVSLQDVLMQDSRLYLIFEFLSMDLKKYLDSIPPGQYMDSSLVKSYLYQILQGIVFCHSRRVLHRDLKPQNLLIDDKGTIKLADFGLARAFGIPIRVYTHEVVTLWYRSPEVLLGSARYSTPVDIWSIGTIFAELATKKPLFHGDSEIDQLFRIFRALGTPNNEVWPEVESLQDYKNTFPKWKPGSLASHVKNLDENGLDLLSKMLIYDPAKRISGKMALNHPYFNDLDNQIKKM
CDK1, sequence (P14635 whole entry partner, species assumed): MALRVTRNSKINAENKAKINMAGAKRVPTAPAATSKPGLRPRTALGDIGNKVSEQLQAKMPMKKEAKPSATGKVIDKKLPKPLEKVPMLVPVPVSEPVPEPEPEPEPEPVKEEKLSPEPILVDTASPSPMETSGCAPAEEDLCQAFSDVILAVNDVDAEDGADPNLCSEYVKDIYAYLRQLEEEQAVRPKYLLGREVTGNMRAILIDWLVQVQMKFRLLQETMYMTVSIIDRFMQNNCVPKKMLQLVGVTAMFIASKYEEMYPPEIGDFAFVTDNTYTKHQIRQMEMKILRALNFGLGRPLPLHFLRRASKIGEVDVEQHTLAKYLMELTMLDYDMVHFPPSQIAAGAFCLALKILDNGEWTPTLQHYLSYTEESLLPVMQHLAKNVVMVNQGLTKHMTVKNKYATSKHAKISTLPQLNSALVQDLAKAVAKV
T1 sequence (P11309 whole entry): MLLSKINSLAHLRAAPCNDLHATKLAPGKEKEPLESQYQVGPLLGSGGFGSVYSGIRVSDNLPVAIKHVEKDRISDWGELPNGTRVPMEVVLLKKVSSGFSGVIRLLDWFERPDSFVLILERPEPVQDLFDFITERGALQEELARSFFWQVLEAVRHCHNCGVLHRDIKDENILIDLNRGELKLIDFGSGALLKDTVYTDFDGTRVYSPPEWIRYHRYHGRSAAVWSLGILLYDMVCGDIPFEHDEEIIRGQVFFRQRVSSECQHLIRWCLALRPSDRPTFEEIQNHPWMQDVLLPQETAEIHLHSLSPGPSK

| SMILES | IC50 (Pim-1) [nM] | IC50 (PLK1) [nM] | IC50 (CDK1) [nM] | IC50 (Pim-2) [nM] | IC50 (Pim-3) [nM] |
| --- | --- | --- | --- | --- | --- |
| CN(C)[C@@H]1CCN(C(=O)c2ccc(-c3c(F)cnc4[nH]c5cnc(-c6cccnc6)cc5c34)cc2)C1 [Example 46, [(3R)-3-(dimethylamino)pyrrolidin-1-yl]{4-[3-fluoro-6-(pyridin-3-yl)-9H-pyrrolo[2,3-b:5,4-c′]dipyridin-4-yl]phenyl}methanone] | < 100 | 100 to 1000 | 100 to 1000 | 1000 to 5000 | < 100 |
| CN(C)C1CCCN(C(=O)c2ccc(-c3c(F)cnc4[nH]c5cnc(-c6cccnc6)cc5c34)cc2)C1 (stereo not shown) [Example 57, [3-(dimethylamino)piperidin-1-yl]{4-[3-fluoro-6-(pyridin-3-yl)-9H-pyrrolo[2,3-b:5,4-c′]dipyridin-4-yl]phenyl}methanone] | < 100 | 100 to 1000 | 100 to 1000 | 1000 to 5000 | < 100 |
| CC(=O)NCCNC(=O)c1ccc(-c2c(F)cnc3[nH]c4cnc(-c5cccnc5)cc4c23)cc1 [Example 48, N-[2-(acetylamino)ethyl]-4-[3-fluoro-6-(pyridin-3-yl)-9H-pyrrolo[2,3-b:5,4-c′]dipyridin-4-yl]benzamide] | < 100 | < 100 | 100 to 1000 | 1000 to 5000 | 100 to 1000 |
| COCCN1CCN(C(=O)c2ccc(-c3c(F)cnc4[nH]c5cnc(-c6cccnc6)cc5c34)cc2)CC1 [Example 72, {4-[3-fluoro-6-(pyridin-3-yl)-9H-pyrrolo[2,3-b:5,4-c′]dipyridin-4-yl]phenyl}[4-(2-methoxyethyl)piperazin-1-yl]methanone] | 100 to 1000 | 100 to 1000 | 1000 to 5000 | > 5000 | 100 to 1000 |
| CCN(CC)CCN(C)C(=O)c1ccc(-c2c(F)cnc3[nH]c4cnc(-c5cccnc5)cc4c23)cc1 [Example 71, N-[2-(diethylamino)ethyl]-4-[3-fluoro-6-(pyridin-3-yl)-9H-pyrrolo[2,3-b:5,4-c′]dipyridin-4-yl]-N-methylbenzamide] | < 100 | 1000 to 5000 | 1000 to 5000 | 1000 to 5000 | < 100 |
| O=C(NCCNCCO)c1ccc(-c2c(F)cnc3[nH]c4cnc(-c5cccnc5)cc4c23)cc1 [Example 27, 4-[3-fluoro-6-(pyridin-3-yl)-9H-pyrrolo[2,3-b:5,4-c′]dipyridin-4-yl]-N-{2-[(2-hydroxyethyl)amino]ethyl}benzamide] | < 100 | 100 to 1000 | 1000 to 5000 | < 100 | < 100 |
| CCN(CCN(C)C)C(=O)c1ccc(-c2c(F)cnc3[nH]c4cnc(-c5cccnc5)cc4c23)cc1 [Example 67, N-[2-(dimethylamino)ethyl]-N-ethyl-4-[3-fluoro-6-(pyridin-3-yl)-9H-pyrrolo[2,3-b:5,4-c′]dipyridin-4-yl]benzamide] | < 100 | 100 to 1000 | 1000 to 5000 | < 100 | < 100 |
| O=C(NCCNc1ccccc1)c1ccc(-c2c(F)cnc3[nH]c4cnc(-c5cccnc5)cc4c23)cc1 [Example 50, 4-[3-fluoro-6-(pyridin-3-yl)-9H-pyrrolo[2,3-b:5,4-c′]dipyridin-4-yl]-N-[2-(phenylamino)ethyl]benzamide] | 100 to 1000 | < 100 | 100 to 1000 | > 5000 | 100 to 1000 |
| O=C(NCCCN1CCCC1=O)c1ccc(-c2c(F)cnc3[nH]c4cnc(-c5cccnc5)cc4c23)cc1 [Example 49, 4-[3-fiuoro-6-(pyridin-3-yl)-9H-pyrrolo[2,3-b:5,4-c′]dipyridin-4-yl]-N-[3-(2-oxopyrrolidin-1-yl)propyl]benzamide] | 100 to 1000 | 100 to 1000 | 1000 to 5000 | > 5000 | 100 to 1000 |
| CN1CCCC1CCNC(=O)c1ccc(-c2c(F)cnc3[nH]c4cnc(-c5cccnc5)cc4c23)cc1 (stereo not shown) [Example 65, 4-[3-fluoro-6-(pyridin-3-yl)-9H-pyrrolo[2,3-b:5,4-c′]dipyridin-4-yl]-N-[2-(1-methylpyrrolidin-2-yl)ethyl]benzamide] | < 100 | 100 to 1000 | 1000 to 5000 | 100 to 1000 | < 100 |
| CN1C[C@@H]2CCN(C(=O)c3ccc(-c4c(F)cnc5[nH]c6cnc(-c7cccnc7)cc6c45)cc3)[C@@H]2C1 [Example 47, {4-[3-fluoro-6-(pyridin-3-yl)-9H-pyrrolo[2,3-b:5,4-c′]dipyridin-4-yl]phenyl}[(3aS,6aS)-5-methylhexahydropyrrolo[3,4-b]pyrrol-1(2H)-yl]methanone] | < 100 | 100 to 1000 | 100 to 1000 | < 100 | < 100 |
| O=C(NCc1nnn[nH]1)c1ccc(-c2c(F)cnc3[nH]c4cnc(-c5cccnc5)cc4c23)cc1 [Example 45, 4-[3-fluoro-6-(pyridin-3-yl)-9H-pyrrolo[2,3-b:5,4-c′]dipyridin-4-yl]-N-(1H-tetrazol-5-ylmethyl)benzamide] | 100 to 1000 | < 100 | 100 to 1000 | > 5000 | 100 to 1000 |
| CCN1CCCC(NC(=O)c2ccc(-c3c(F)cnc4[nH]c5cnc(-c6cccnc6)cc5c34)cc2)C1 (stereo not shown) [Example 54, N-(1-ethylpiperidin-3-yl)-4-[3-fluoro-6-(pyridin-3-yl)-9H-pyrrolo[2,3-b:5,4-c′]dipyridin-4-yl]benzamide] | < 100 | 100 to 1000 | 100 to 1000 | 100 to 1000 | < 100 |

Continued, values first:

| IC50 (Pim-1) [nM] | IC50 (PLK1) [nM] | IC50 (CDK1) [nM] | IC50 (Pim-2) [nM] | IC50 (Pim-3) [nM] | SMILES |
| --- | --- | --- | --- | --- | --- |
| < 100 | > 5000 | 1000 to 5000 | 100 to 1000 | < 100 | CN1CCN(NC(=O)c2ccc(-c3c(F)cnc4[nH]c5cnc(-c6cnn(C)c6)cc5c34)cc2)CC1 [Example 99, 4-[3-fluoro-6-(1-methyl-1H-pyrazol-4-yl)-9H-pyrrolo[2,3-b:5,4-c′]dipyridin-4-yl]-N-(4-methylpiperazin-1-yl)benzamide] |
| < 100 | 100 to 1000 | 1000 to 5000 | 1000 to 5000 | < 100 | CN1CCC(N(C)C(=O)c2ccc(-c3c(F)cnc4[nH]c5cnc(-c6cccnc6)cc5c34)cc2)CC1 [Example 81, 4-[3-fluoro-6-(pyridin-3-yl)-9H-pyrrolo[2,3-b:5,4-c′]dipyridin-4-yl]-N-methyl-N-(1-methylpiperidin-4-yl)benzamide] |
| < 100 | 100 to 1000 | 1000 to 5000 | 100 to 1000 | < 100 | CN1CC2CCN(C(=O)c3ccc(-c4c(F)cnc5[nH]c6cnc(-c7cccnc7)cc6c45)cc3)CC2C1 (stereo not shown) [Example 74, {4-[3-fluoro-6-(pyridin-3-yl)-9H-pyrrolo[2,3-b:5,4-c′]dipyridin-4-yl]phenyl}(2-methyloctahydro-5H-pyrrolo[3,4-c]pyridin-5-yl)methanone] |
| < 100 | 1000 to 5000 | 1000 to 5000 | 1000 to 5000 | < 100 | CN1CCC2(CCN(C(=O)c3ccc(-c4c(F)cnc5[nH]c6cnc(-c7cccnc7)cc6c45)cc3)C2)C1 (stereo not shown) [Example 77, {4-[3-fluoro-6-(pyridin-3-yl)-9H-pyrrolo[2,3-b:5,4-c′]dipyridin-4-yl]phenyl}(7-methyl-2,7-diazaspiro[4.4]non-2-yl)methanone] |
| < 100 | 100 to 1000 | 100 to 1000 | < 100 | < 100 | CNCCNC(=O)c1ccc(-c2c(F)cnc3[nH]c4cnc(-c5cccnc5)cc4c23)cc1 [Example 88, 4-[3-fluoro-6-(pyridin-3-yl)-9H-pyrrolo[2,3-b:5,4-c′]dipyridin-4-yl]-N-[2-(methylamino)ethyl]benzamide] |
| < 100 | < 100 | 100 to 1000 | 100 to 1000 | < 100 | Cc1n[nH]cc1CNC(=O)c1ccc(-c2c(F)cnc3[nH]c4cnc(-c5cccnc5)cc4c23)cc1 [Example 73, 4-[3-fluoro-6-(pyridin-3-yl)-9H-pyrrolo[2,3-b:5,4-c′]dipyridin-4-yl]-N-[(3-methyl-1H-pyrazol-4-yl)methyl]benzamide] |
| < 100 | 100 to 1000 | 1000 to 5000 | 100 to 1000 | < 100 | CCN(CC1CCN(C)C1)C(=O)c1ccc(-c2c(F)cnc3[nH]c4cnc(-c5cccnc5)cc4c23)cc1 (stereo not shown) [Example 79, N-ethyl-4-[3-fluoro-6-(pyridin-3-yl)-9H-pyrrolo[2,3-b:5,4-c′]dipyridin-4-yl]-N-[(1-methylpyrrolidin-3-yl)methyl]benzamide] |
